From US20150005236A1, “USE OF BETA-NERVE GROWTH FACTOR FOR INDUCING OVULATION IN MAMMALS” (INSTITUT NATIONAL DE LA RECHERCHE AGRONOMIQUE, priority 2012, published 2015)
“And” between values parts separate entries of the source, which are not always exact repeats. Identical values can stand only once. Marks after values point to notes of the source that are not given here.

Columns and labels:
[1] = tested on: female alpacas; experiment: LH concentration in peripheral blood of female alpacas (RIA); format: in vivo, alpaca; conditions: for LH concentration in peripheral blood: 12 hours after i.m. injection, versus saline; for peak of LH, time after injection: i.m. injection, peripheral blood
Protocol: (§1) Female alpacas were cannulated and jugular venous blood samples (5 ml) were collected for detection of luteinising hormone immediately before treatment, every 30 min for 4 h, then every 1 h for 4 h and finally at 12 h post-treatment. Jugular venous blood samples (5 ml) were also collected on day 8 at the time of ultrasonography for detection of plasma progesterone. Samples were placed in heparinised tubes, centrifuged at 2000×g for 10 min, the plasma decanted and stored at −20° C. until analysis.
(§2) Plasma LH concentration were determined using a RIA. Plasma progesterone concentrations were determined using a commercial double antibody RIA kit (Coat-a-Count).
The evolution of the concentration of LH in peripheral blood was assessed for 12 hours after the injections.

[2] = tested on: female alpacas; experiment: Induction of ovulation in alpacas (transrectal ultrasonography, plasma progesterone RIA); format: in vivo, alpaca; conditions: for CL diameter: corpus luteum on day 8 following i.m. treatment; for CL diameter / Progesterone conc.: mean ± sem; for corpus lutea detected, % of alpacas: day 8 following treatment; for corpus lutea detected, % of alpacas / dominant follicle absent, % of female alpacas: n=5/group; for Progesterone conc.: plasma, day 8 following i.m. treatment, animals that did not ovulate excluded; for dominant follicle absent, % of female alpacas: ultrasonography 28-30 h following treatment
Protocol: The emergence of dominant follicles was synchronised with the 0.8 ml (200 μg) prostaglandin F2α (Estrumate®, Intervet) i.m. followed by 1 ml (4 μg) of Buserelin (Receptal®, Intervet) i.m. 24 h later, then luteolysis was induced 11 days after induced ovulation with 0.8 ml Estrumate®.
To determine the presence of a dominant follicle, females were restrained in sternal recumbency and examined by transrectal ultrasonography using an Aloka SSD-500 scanner with 7.5 MHz linear array transducer (Aloka Co., Japan). The ovaries of […] were scanned. Females with a newly emerged dominant follicle of 6-10 mm in diameter were randomly assigned to receive 1 of 4 treatments: (1) 1 ml 0.9% saline in, (n 5), (2) 1 ml (4 μg) Receptal® (Intervet) i.m (n=5), (3) 2 ml alpaca's seminal plasma i.m. collected as described above for Experiment ˜1 (n=5), (4) 1 mg recombinant active human β-NGF protein (Sino Biological, Japan) Lm. (n=5).
Animals were examined by transrectal ultrasonography 28-30 h following treatments to detect ovulation. Ovulation was defined as the absence of the dominant follicle that was observed during the previous scan at the time of treatment. Ultrasonography was also repeated 8 days following treatment, to confirm ovulation and determine the size of the corpus luteum.
as §1, §2
International, Hemel Hempstead, UK) with post-hoc comparisons using the least significant difference (LSD) test where appropriate. Far all analyses P<0.05 was considered significant.
In this experiment, female alpacas (n 5/group) were administered i.m. with (1) 1 ml 0.9% saline, (2) 1 ml of the GnRH agonist Receptal® (3) 2 ml alpaca seminal plasma, or (4) 1 mg human β-NGF. Ovulation was detected by transrectal ultrasonography […] following treatment and confirmed by plasma progesterone concentrations.

[3] = tested on: female rabbits; experiment: Induction of ovulation in female rabbits; format: in vivo, rabbit; conditions: for Ovulation (%): ovulation frequency, i.m. injection
Protocol: A herd of 83 female rabbits of proven fertility was used in this experiment.
The female rabbits were synchronized by an injection of eGG 48 hours before insemination. Then they were inseminated with a mixture of semen from several males. The same mixture was used for all females.
The female rabbits were killed 48 hours after insemination. The ovaries were collected to proceed to counting the corpora lutea, pre-ovulatory follicles of diameter higher than 1 mm and atretic follicles, and to identify potential pseudopregnant females. The oviducts were infused in order to count oocytes and embryos and to evaluate the developmental stage of the latter (number of blastomeres of the embryo).
The results were analysed with the software SAS using a fixed-effects variance analysis, taking into account the fixed effect of the treatment (4 levels: GnRH, β-NGF, PS and saline).

[4] = tested on: glial cells associated with GnRH neurons; experiment: Immunohistochemistry of the relations between GnRH neurons and glial cells; format: cell-based, mouse; conditions: 20 min application at 75 nM, then K+ stimulation; not in control conditions
Protocol: An immunohistochemical approach was used to characterize the cells present in the culture, using anti-GnRH antibody for the GnRH neurons, anti-S100b antibody for the glial cells and anti-P75 antibody (P75 is a NGF-specific receptor). The analysis was carried out by confocale microscopy.
Nasal explants were fixed in 4% formaldehyde [45-60 min, rinsed in PBS (3×10 min)], blocked (1 h, 10% normal goat serum, 0.3% Triton X-100, and 0.1% sodium azide), rinsed in PBS (3×8 min), and incubated overnight in anti-GnRH-1 (1:3000, SW-1). Antibodies were diluted in PBS containing 10% normal goat serum, 0.3% Triton X-100, and 0.1% sodium azide. The next day, the explants were rinsed in PBS (3×8 min), incubated in secondary antibody ant rabbit Alexa 546 (1:500, 1 h; Molecular Probes, Inc., Eugene Oreg.) and rinsed in PBS (4×8 min). Explants incubated with fluorescent dies were mounted with Vector Shield (Vector Laboratories).
The relations between GnRH neurons and glial cells have been analyzed by immunohistochemistry after 20 min of recording in calcic imaging, for the control and after 20 min of application of β-NGF at 75 nM in the culture medium, and after K^+ stimulation. The glial cells retract after K^+ stimulation in the presence of β-NGF, but not in control conditions.

[5] = tested on: mouse GnRH neurons; experiment: Calcium imaging of primary culture of GnRH neurons; format: cell-based
Description: A model of primary culture of GnRH neurons has been developed from explants of olfactory placodes of mouse embryos (Constantin et al., 2009). This model has three stages of in vitro development: from 1 to 3 days, intra-explant migration, corresponding to an in vivo intranasal migration; from 3 to […] days, out-of explant migration, corresponding to an in vivo intracerebral development; from 7 to 15 days, occurrence of the pulsatile secretion, corresponding to neuronal and network maturation.
This experiment was carried out between 7 and 15 days of in vitro development corresponding to a stage of mature GnRH neurons having a pulsatile GnRH secretion.
Embryos were obtained from timed pregnant animals. Nasal pits of embryonic d 11.5 staged Swiss mice were isolated under aseptic conditions and refrigerated for 1 h in Gey's balanced salt solution (Eurobio, Les Ulis, France) enriched with glucose (Sigma-Aldrich Corp., St. Louis, Mo.). Nasal explants were adhered onto coverslips by a chicken plasma (local source)/thrombin (Sigma-Aldrich) clot. […]
These variations were measured by “time lapse” imaging in the primary culture of GnRH neurons. A quantitative analysis was carried out for single neurons but also overall for a group of neurons constituting part of the network. […]
Calcium Green-1 was visualized using an inverted microscope (DM-IRB; Leica. Microsystems GmbH, Wetzlar, Germany), through a ×20 fluorescence objective, and acquired using a cooled intensified charge-coupled device camera (CoolSNAP fx; Rapper Instruments, Photometrics, Tucson, Ariz.). Experiments were piloted by Metafluor (Molecular Devices, Downingtown, Pa.), controlling the shutter and the acquisition (every 20 sec for 3 h), Excitation wavelengths were provided through a medium-width excitation bandpass filter at 465-495 nm, and emission was monitored through a 40-nm bandpass centered on 535 nm. Fluctuations in [Ca2+]i were analyzed a posteriori with Metafluor software. […] Calcium Green-1 fluorescence intensity was plotted and analyzed with Excel (Microsoft Corp., Redmond, Wash.). […]

[6] = 48 hours after insemination, estimated mean values

Molecule | LH concentration in peripheral blood [1] | peak of LH, time after injection [1] | CL diameter [2] | corpus lutea detected, % of alpacas [2] | Progesterone conc. [2] | dominant follicle absent, % of female alpacas [2] | Collected embryos [3, 6] | Corpora lutea (number by injected female rabbit) [3, 6] | Haemorrhagic follicles [3, 6] | Ovulation (%) [3] | time to LH surge after treatment ([1]; 1 mg i.m.) | glial cells after K+ stimulation [4] | percent of synchronization events involving more than 70% of the recorded GnRH neurons ([5]; 75 nM in the culture medium) | synchronization of calcic events between GnRH neurons ([5]; 20 min after application at 75 nM) | fold decrease in average time between two calcium events ([5]; 20 min after application at 75 nM in the culture medium, versus control (about 15 s))
CCNC(=O)[C@@H]1CCCN1C(=O)[C@H](CCCNC(=N)N)NC(=O)[C@H](CC(C)C)NC(=O)[C@@H](COC(C)(C)C)NC(=O)[C@H](Cc1ccc(O)cc1)NC(=O)[C@H](CO)NC(=O)[C@H](Cc1c[nH]c2ccccc12)NC(=O)[C@H](Cc1cnc[nH]1)NC(=O)[C@@H]1CCC(=O)N1 [Receptal, Buserelin, reference compound] | significant increase | 3 h | 9.3 ± 1.49^a mm | 80% | 4.01 ± 0.897^b ng/ml | 80% | – | – | – | – | – | – | – | – | –
GnRH: 0.2 ml of Fertagyl® containing 20 μg of GnRH (Gonadotrophine Releasing Hormone), positive control (QHWSYGLRPG; Gonadoliberin-1; UniProt P01148 24-33, looked up) | – | – | – | – | – | – | 12.09^a | 13.82^a | 1.36^a | 100% and 100^a % | – | – | – | – | –
beta-Nerve Growth Factor [β-NGF] | significant increase | 3 h | 10.3 ± 1.03^a mm | 80% | 3.28 ± 0.681^b ng/ml | 80% | – | – | – | 25% and 25.0^b % | ≤ 8 h | retract | increase | increased | 3
